Data on eight molecules can be found in patent publication US20060148840A1, “Pyrrolodihydroisoquinolines as pde10 inhibitors” (Altana Pharma AG, priority 2003, published 2006).

Molecule `COC(=O)CCc1c(-c2ccncc2)c(C#N)c2n1CCc1cc(OC)c(OC)cc1-2` [Example 29, 3-(1-Cyano-8,9-dimethoxy-2-pyridin-4-yl-5,6-dihydro-pyrrolo[2,1-a]isoquinolin-3-yl)-propionic acid methyl ester] displayed a melting point of 191 to 193 °C. On to `COc1cc2c(cc1OC)-c1c(C#N)c(-c3cccc4ccccc34)c(C)n1CC2` [Example 22, 8,9-Dimethoxy-3-methyl-2-naphthalen-1-yl-5,6-dihydro-pyrrolo[2,1-a]isoquinoline-1-carbonitrile], for which the melting point fell in the range of 226 to 229 °C. For `COC(=O)c1c(-c2cc(C)c(O)c(C)c2)c(C)n2c1-c1cc(OC)c(OC)cc1CC2C` (centres unmarked) [Example 65, 2-(4-Hydroxy-3,5-dimethyl-phenyl)-8,9-dimethoxy-3,5-dimethyl-5,6-dihydro-pyrrolo[2,1-a]isoquinoline-1-carboxylic acid methyl ester] the value was 177 to 179 °C. `COc1cc2c(cc1OC)-c1c(C)c(-c3cc(C)c(O)c(C)c3)c(C)n1CC2` [Example 68, 4-(8,9-Dimethoxy-1,3-dimethyl-5,6-dihydro-pyrrolo[2,1-a]isoquinolin-2-yl)-2,6-dimethyl-phenol] had a melting point of 183 to 185 °C. For `COc1cc2c(cc1OC)-c1c(C#N)c(-c3cn(S(C)(=O)=O)c4ccccc34)c(C)n1C(C)C2` (centres unmarked) [Example 40, 2-(1-Methanesulfonyl-1H-indol-3-yl)-8,9-dimethoxy-3,5-dimethyl-5,6-dihydro-pyrrolo[2,1-a]isoquinoline-1-carbonitrile] the value was 219 to 221 °C; for `COc1cc2c(cc1OC)-c1c(C#N)c(-c3ccnc(C)c3)c(C)n1C(C)C2` (centres unmarked) [Example 45, 8,9-Dimethoxy-3,5-dimethyl-2-(2-methyl-pyridin-4-yl)-5,6-dihydro-pyrrolo[2,1-a]isoquinoline-1-carbonitrile], 187 to 189 °C; for `CCOc1cc2c(cc1OC)-c1c(C#N)c(-c3cc(C)c(O)c(C)c3)c(C)n1C(C)C2` (centres unmarked) [Example 53, 8-Ethoxy-2-(4-hydroxy-3,5-dimethyl-phenyl)-9-methoxy-3,5-dimethyl-5,6-dihydro-pyrrolo[2,1-a]isoquinoline-1-carbonitrile], 232 to 234 °C. With `CCOC(=O)c1c(-c2cccc(N(C)C)c2)c(C)n2c1-c1cc(OC)c(OC)cc1CC2(C)C` [Example 4, 2-(3-Dimethylamino-phenyl)-8,9-dimethoxy-3,5,5-trimethyl-5,6-dihydro-pyrrolo[2,1-a]isoquinoline-1-carboxylic acid ethyl ester], the melting point lay in the range of 101 to 102 °C.
